# Source: patent US20200113816A1, “REACTIONS TRIGGERED BY COOLING-INDUCED GEL-TO-SOL TRANSITION OF THERMORESPONSIVE POLYMERS” (Vanderbilt University, priority 2018, published 2020)
# System: Sprague-Dawley rats
# Assay: Neurobehavioral testing of nerve block, cooling-triggered local anesthesia
# Type: in vivo
# Settings: injected, 15 mg/mL in sterile saline
# Source text: Nile Red- or bupivacaine-loaded gels are implanted in adult Sprague-Dawley rats alongside a wireless temperature probe. Stability are characterized using dye-loaded formulations, with animals imaged daily to determine the extent to which the dye leaks from the gelled implant; quantitative data are derived from depletion of the Nile Red fluorescence signal. To characterize release, rats implanted with dye-loaded formulations are subjected to a cooling stimulus (ice applied to the skin while tissue temperature is remotely monitored), and subsequently imaged to determine the extent to which cooling triggers release of the sequestered compound in vivo as observed by decrease in the depot fluorescence intensity. Multiple cycles of cooling are performed (with a 24-hour recovery period between cycles) until no significant change in the fluorescence signal from the depot is observed. […] The difference between the duration of nerve blocks due to injection of bupivacaine solution and the duration of blocks caused by cooling-triggered release from an implanted device is determined. To investigate tissue response to the implanted devices, after the animals are sacrificed the tissue surrounding the sciatic nerve is removed, processed for histology (H&E staining), and analyzed via optical microscopy.
smiles,measurement,value
CCCCN1CCCCC1C(=O)Nc1c(C)cccc1C (stereo not shown) [bupivacaine],baseline nerve block duration,~200 min
